pIC50: −log10 of the molar value.
Assays:
[1] = test system: MM1 S (B lymphoblast cell line); experiment: 48 hr CTG viability assay, MM1S; assay type: cell-based; conditions: Homo sapiens, 48 hr CTG, read-out: MM1S IC50
Protocol: (§1) A viability assay was conducted for 48 hours to evaluate the inhibition of cancer cell growth by proteasome inhibitors. Briefly, the candidate cell line was plated with a 96-well plate following density of cells, respectively. 6×10^3 Cells/well for A2780 (human ovarian cancer cell line) and MDA-MB-468 (breast carcinoma), 8×10^3 Cells/well for Hs746T (human gastric carcinoma cell line), 1.1×10^4 Cells/well for MM1 S and RPMI 8226 (multiple myeloma). After 24 hours, the cells were treated with various concentrations of the compound (ranging from 0.0015 uM to 10 uM). […] After 48 hours of incubation at 37° C., 5% CO2 incubator, cells were analyzed for viability using the CellTiter-Glo Luminescent Cell Viability assay (Promega, Cat #G7570). All viability assays were performed in duplicate and Luminescence was read using an Envision (Perkin Elmer, USA). Data were analyzed using XLfit software. […] (human gastric carcinoma cell line), MM1 S (B lymphoblast cell line), and RPMI 8226 (B lymphocyte cell line, multiple myeloma). Inhibition is indicated as IC50 [nM] (“-”=not measured).

[2] = test system: RPMI 8226 (B lymphocyte cell line, multiple myeloma); experiment: 48 hr CTG viability assay, RPMI 8226; assay type: cell-based; conditions: Homo sapiens, RPMI-8226; 48 hr CTG; read-out: RPMI-8226 IC50
Protocol: as §1

[3] = test system: A549 (human lung carcinoma cell line); experiment: Glo assay of A549 cells (Table 3; ProteasomeGlo plating scheme); assay type: cell-based; conditions: Homo sapiens; A549 cells; read-out: PGLo A549
Method in brief: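 Compound treatment lasts 105 minutes at 37° C. under 5% CO2. Suc-LLVY-Glo substrate premixed with detection reagent (60 min at room temperature) is then added directly to the cells, and luminescence after 10-15 min in the dark gives the IC50 in nM.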

[4] = test system: Hs 746T (human gastric carcinoma cell line); experiment: 48 hr CTG viability assay, Hs 746T; assay type: cell-based; conditions: Hs746T, 48 hr CTG, read-out: Hs 746T IC50
Protocol: as §1

[5] = target: T1, β5 subunit of the human immunoproteasome (IPS) (Homo sapiens, UniProt P28062); experiment: β5 inhibition assay, human immunoproteasome (Suc-LLVY-AMC); assay type: biochemical; conditions: IC50 class, Suc-LLVY-AMC substrate
T1 construct: purchased Boston Biochem E-370
Method in brief: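 Human immunoproteasome (1 nM final) was preincubated 10 min at RT with compound in 100 mM HEPES pH 7.5, 50 mM NaCl, 0.02% SDS, 1 mM DTT. Suc-LLVY-AMC (22.6 μM final) was then added for 4 h at RT in the dark. After stopping with 1 μM bortezomib, AMC fluorescence was read (ex 355/em 460 nm).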

[6] = target: T2, β5 subunit of the human constitutive proteasome (CPS) (Homo sapiens, UniProt P28074); experiment: β5 inhibition assay, human constitutive proteasome (Suc-LLVY-AMC); assay type: biochemical; conditions: IC50 class, Suc-LLVY-AMC substrate
T2 construct: purchased Boston Biochem E-360
Protocol: The enzymatic activity of the β5 subunit of the human constitutive proteasome (CPS) is analyzed. In another assay, which differs from the assay of the human constitutive proteasome only in using the human immunoproteasome (IPS) the enzymatic activity of the β5 subunit of the human immunoproteasome (IPS) is analyzed. […] Inhibition is indicated as IC50 [nM] (“-”=not measured).

Measured: pIC50

COc1ccccc1OCCC(=O)N[C@H]1CC(=O)N2CCCC(CCOc3ccc(C)c(c3)CNC(=O)[C@H](CCc3ccccc3)NC1=O)C2 (stereo partly drawn) [Compound 588, 3-(2-methoxyphenoxy)-N-((9S,12S)-5^4-methyl-8,11,14-trioxo-9-phenethyl-4-oxa-7,10-diaza-1(3,1)-piperidina-5(1,3)-benzenacyclotetradecaphane-12-yl)propanamide]
> 7.00: all assays above

Cc1ccc2cc1CNC(=O)[C@H](CCc1ccccc1)NC(=O)[C@@H](NC(=O)CCOCc1ccccc1)CC(=O)N1CCCC(CCO2)C1 (stereo partly drawn) [Compound 589, 3-(benzyloxy)-N-((9S,12S)-5^4-methyl-8,11,14-trioxo-9-phenethyl-4-oxa-7,10-diaza-1(3,1)-piperidina-5(1,3)-benzenacyclotetradecaphane-12-yl)propanamide]
> 7.00: all assays above

Cc1ccc2cc1CNC(=O)[C@H](CCc1ccccc1)NC(=O)[C@@H](NC(=O)CCOC1CC3(COC3)C1)CC(=O)N1CCCC(CCO2)C1 (stereo partly drawn) [Compound 590, 3-((2-oxaspiro[3.3]heptan-6-yl)oxy)-N-((9S,12S)-5^4-methyl-8,11,14-trioxo-9-phenethyl-4-oxa-7,10-diaza-1(3,1)-piperidina-5(1,3)-benzenacyclotetradecaphane-12-yl)propanamide]
> 7.00: all assays above

Cc1ccc2cc1CNC(=O)[C@H](CCc1ccccc1)NC(=O)[C@@H](NC(=O)CCOc1ccccc1)CC(=O)N1CCCC(CCO2)C1 (stereo partly drawn) [Compound 591, N-((9S,12S)-5^4-methyl-8,11,14-trioxo-9-phenethyl-4-oxa-7,10-diaza-1(3,1)-piperidina-5(1,3)-benzenacyclotetradecaphane-12-yl)-3-phenoxypropanamide]
> 7.00: all assays above

CCN1CCC(F)(C(=O)N[C@H]2CC(=O)N3CCCC(CCOc4ccc(C)c(c4)CNC(=O)[C@H](CCc4ccccc4)NC2=O)C3)CC1 (stereo partly drawn) [Compound 592, 1-ethyl-4-fluoro-N-((9S,12S)-5^4-methyl-8,11,14-trioxo-9-phenethyl-4-oxa-7,10-diaza-1(3,1)-piperidina-5(1,3)-benzenacyclotetradecaphane-12-yl)piperidine-4-carboxamide]
> 7.00: all assays above

Cc1ccc2cc1CNC(=O)[C@H](CCc1ccccc1)NC(=O)[C@@H](NC(=O)NC1CCCCC1)CC(=O)N1CCCC(CCO2)C1 (stereo partly drawn) [Compound 593, 1-cyclohexyl-3-((9S,12S)-5^4-methyl-8,11,14-trioxo-9-phenethyl-4-oxa-7,10-diaza-1(3,1)-piperidina-5(1,3)-benzenacyclotetradecaphane-12-yl)urea]
> 7.00: all assays above

Cc1ccc2cc1CNC(=O)[C@H](CCc1ccccc1)NC(=O)[C@@H](NC(=O)CCOCC1CC1)CC(=O)N1CCCC(CCO2)C1 (stereo partly drawn) [Compound 594, 3-(cyclopropylmethoxy)-N-((9S,12S)-5^4-methyl-8,11,14-trioxo-9-phenethyl-4-oxa-7,10-diaza-1(3,1)-piperidina-5(1,3)-benzenacyclotetradecaphane-12-yl)propanamide]
> 7.00: all assays above

Cc1ccc2cc1CNC(=O)[C@H](CCc1ccccc1)NC(=O)[C@@H](NC(=O)CCOC1CCC1)CC(=O)N1CCCC(CCO2)C1 (stereo partly drawn) [Compound 595, 3-cyclobutoxy-N-((9S,12S)-5^4-methyl-8,11,14-trioxo-9-phenethyl-4-oxa-7,10-diaza-1(3,1)-piperidina-5(1,3)-benzenacyclotetradecaphane-12-yl)propanamide]
> 7.00: all assays above

COCCOCCC(=O)N[C@H]1CC(=O)N2CCCC(CCOc3ccc(C)c(c3)CNC(=O)[C@H](CCc3ccccc3)NC1=O)C2 (stereo partly drawn) [Compound 596, 3-(2-methoxyethoxy)-N-((9S,12S)-5^4-methyl-8,11,14-trioxo-9-phenethyl-4-oxa-7,10-diaza-1(3,1)-piperidina-5(1,3)-benzenacyclotetradecaphane-12-yl)propanamide]
> 7.00: all assays above

Cc1ccc2cc1CNC(=O)[C@H](CCc1ccccc1)NC(=O)[C@@H](NC(=O)CCOC1CC1)CC(=O)N1CCCC(CCO2)C1 (stereo partly drawn) [Compound 597, 3-cyclopropoxy-N-((9S,12S)-5^4-methyl-8,11,14-trioxo-9-phenethyl-4-oxa-7,10-diaza-1(3,1)-piperidina-5(1,3)-benzenacyclotetradecaphane-12-yl)propanamide]
> 7.00: all assays above

Cc1ccc2cc1CNC(=O)[C@H](CCc1ccccc1)NC(=O)[C@@H](NC(=O)C(F)(F)CN)CC(=O)N1CCCC(CCO2)C1 (stereo partly drawn) [Compound 598, 3-amino-2,2-difluoro-N-((9S,12S)-5^4-methyl-8,11,14-trioxo-9-phenethyl-4-oxa-7,10-diaza-1(3,1)-piperidina-5(1,3)-benzenacyclotetradecaphane-12-yl)propanamide]
> 7.00: all assays above

Cc1ccc2cc1CNC(=O)[C@H](CCc1ccccc1)NC(=O)[C@@H](NS(=O)(=O)CC(F)(F)F)CC(=O)N1CCCC(CCO2)C1 (stereo partly drawn) [Compound 601, 2,2,2-trifluoro-N-((9S,12S)-5^4-methyl-8,11,14-trioxo-9-phenethyl-4-oxa-7,10-diaza-1(3,1)-piperidina-5(1,3)-benzenacyclotetradecaphane-12-yl)ethane-1-sulfonamide]
> 7.00: all assays above

Cc1ccc2cc1CNC(=O)[C@H](C1Cc3ccccc3C1)NC(=O)[C@@H](NC(=O)Cc1cn3ccsc3n1)CC(=O)N1CCCC(CCO2)C1 (stereo partly drawn) [Compound 602, N-((9S,12S)-9-(2,3-dihydro-1H-inden-2-yl)-5^4-methyl-8,11,14-trioxo-4-oxa-7,10-diaza-1(3,1)-piperidina-5(1,3)-benzenacyclotetradecaphane-12-yl)-2-(imidazo[2,1-b]thiazol-6-yl)acetamide]
> 7.00: all assays above
